Experimental data reported in patent US8987200B2, “Polycationic calcium modulator peptides for the treatment of hyperparathyroidism and hypercalcemic disorders” (KAI Pharmaceuticals, Inc., priority 2006, dated 2015).
No end group written: not given here.

What was measured:
anesthetized rats = test: 3 hour infusion study of KAI-1633 in anesthetized rats, with steady state plasma concentration by ELISA (Example 14); type: in vivo, rat; settings: 9 mg/kg iv infusion for 3 hours
From the text: The study was designed to determine the contribution of the disulfide bond and/or cysteine residue on the calcium modulator peptide to the reductions in total calcium and plasma PTH.
Control animals (n=4) were infused with saline.

[1] = rat, plasma
[2] = In vitro activity of free-thiol calcium modulating peptide compared with KAI-1455; settings: tested in vitro, relative to KAI-1455

## EAVSLKPTGGYGRKKRRQRRR-NH2 [KAI-1633]
Anesthetized rats
  Plasma PTH levels: did not show a reduction
  Total calcium: did not show a reduction

## CC(C)C[C@H](NC(=O)[C@H](CO)NC(=O)CNC(=O)[C@H](CC(C)C)NC(=O)[C@H](CCC(=O)O)NC(=O)[C@H](Cc1ccc(O)cc1)NC(=O)[C@H](CO)NC(=O)[C@H](CC(N)=O)NC(=O)[C@H](Cc1ccccc1)NC(=O)[C@H](CO)NC(=O)[C@@H](N)CSSC[C@H](N)C(=O)N[C@@H](Cc1ccc(O)cc1)C(=O)NCC(=O)N[C@@H](CCCNC(=N)N)C(=O)N[C@@H](CCCCN)C(=O)N[C@@H](CCCCN)C(=O)N[C@@H](CCCNC(=N)N)C(=O)N[C@@H](CCCNC(=N)N)C(=O)N[C@@H](CCC(N)=O)C(=O)N[C@@H](CCCNC(=N)N)C(=O)N[C@@H](CCCNC(=N)N)C(=O)N[C@@H](CCCNC(=N)N)C(=O)O)C(=O)O [KP-9803]
[1]
  half-life: ~10 min

## Ac-CYGRKKRRQRRR-NH2 [SEQ ID NO:5, capped TAT-derived peptide having an N-terminal cysteine residue containing a free thiol]
[2]
  Activity in vitro: comparable to KAI-1455

## CC[C@H](C)[C@H](NC(=O)[C@@H]1CCCN1C(=O)[C@H](C)NC(=O)[C@H](CC(=O)O)NC(=O)[C@H](Cc1c[nH]cn1)NC(=O)[C@@H](N)CSSC[C@H](N)C(=O)N[C@@H](Cc1ccc(O)cc1)C(=O)NCC(=O)N[C@@H](CCCNC(=N)N)C(=O)N[C@@H](CCCCN)C(=O)N[C@@H](CCCCN)C(=O)N[C@@H](CCCNC(=N)N)C(=O)N[C@@H](CCCNC(=N)N)C(=O)N[C@@H](CCC(N)=O)C(=O)N[C@@H](CCCNC(=N)N)C(=O)N[C@@H](CCCNC(=N)N)C(=O)N[C@@H](CCCNC(=N)N)C(=O)O)C(=O)NCC(=O)N[C@@H](Cc1ccc(O)cc1)C(=O)N[C@@H](CC(=O)O)C(=O)O [KP-9706]
[1]
  half-life: ~5 min
